# Results from patent US4322426A, “17-Substituted-6-desoxy-7,8-dihydro-6α-methylnoroxymorphone narcotic antagonists” (priority 1980, dated 1982).
# Columns and labels:
# [1] = test system: Straub tail induced by morphine; test: Anti-Straub Tail test, antagonism of morphine-induced Straub tail; format: in vivo, Female CF1 S mice; details: relative to naloxone
# Description: Narcotic analgesics produce in mice an erection and arching of the tail (90° or more) which is referable to spinal cord stimulation. This Straub tail reaction is not produced by other analgesics, including the narcotic antagonists.
# H. B. Dayton and P. S. Wolf, The Pharmacologist, 10, 189 (1968)]. This property is the basis of a mouse test for narcotic antagonists.
# Female CF1 S mice (fasted 17-21 hrs.), 5 per dose, were injected orally or subcutaneously (loose skin inside hind limb) with test drug at 0.67, 2, 6, 18, 54 and 162 mg/kg or other appropriate doses in 0.20 ml 1% Methocel® per mouse. Ten minutes later, 40 mg/kg (base weight) of morphine sulfate in 0.20 ml 1% Methocel® per mouse was given subcutaneously (nape of neck). The mice were observed continuously for the next 20 minutes after the first mouse of a group of 30 had received morphine. Prevention of a 90° Straub tail during this observation period was taken as indication of narcotic antagonist ability.
# [2] = test system: pain induced by phenylquinone; test: Phenylquinone writhing test (PQW), analgesic activity; format: in vivo, female white mice; details: oral
# Description: A standard procedure for detecting and comparing the analgesic activity of a series of compounds for which there is good correlation with human efficacy is the standard phenylquinone writhing test (PQW) modified from Siegmund, et al., Proc. Soc. Exp. Biol. Med., 95, 729 (1957). A test compound suspended in 1% methocellulose was given orally to fasted (17-21 hours) female white mice, 5-20 animals per double blind test. Aqueous (0.1% phenyl-p-benzoquinone) phenylquinone was injected intraperitoneally at 24 minutes later using 0.20 ml per mouse. […] The effective analgesic dose for 50% of the mice (ED50) was calculated by the moving average method of Thompson, W. R., Bact. Rev., 11, 115-145 (1947).
# [3] = test system: Straub tail induced by morphine; details: literature, Blumberg et al. 1968; cited from earlier work
SMILES,analgesic activity (in words) [2],prevention of morphine-induced Straub tail (in words) [3],also measured
C[C@H]1CC[C@@]2(O)[C@H]3Cc4ccc(O)c5c4[C@@]2(CCN3CC2CC2)[C@H]1O5 [Compound 1],,,narcotic antagonism (in words) [1]: almost the antagonistic activity of naloxone
C[C@H]1CC[C@@]2(O)[C@H]3Cc4ccc(O)c5c4[C@@]2(CCN3CC2CCCO2)[C@H]1O5 (some centres unmarked) [Compound 7],weakly analgetic,,
C=CCN1CC[C@]23c4c5ccc(O)c4O[C@H]2[C@@H](O)C=C[C@H]3[C@H]1C5 [nalorphine],,prevent the induction of Straub tail in mice,
C=CCN1CC[C@]23c4c5ccc(O)c4O[C@H]2C(=O)CC[C@@]3(O)[C@H]1C5 [Naloxone],,prevent the induction of Straub tail in mice,
COc1ccc2c3c1O[C@H]1[C@@H](C)CC[C@@]4(O)[C@@H](C2)N(CC2CCCO2)CC[C@]314 (some centres unmarked) [Compound 6],weakly analgetic,,
